How the values were obtained:
MC4R = biological target: T1, MC4R (Homo sapiens, UniProt P32245); assay: Assay of MC4R antagonist activity in cells in vitro (cAMP assay, Melanotan I stimulation); type: cell-based; settings: flipin-293-MC4 cell line, Melanotan I as agonist
T1 construct: expressed in transfected cells; host or cells: flipin-293-MC4 (Flp-In 293 host, hygromycin selection)
Protocol: Test Example 1: Assay of MC4R antagonist activity in cells in vitro
a. Experimental consumables:
b. Experimental steps • ✔ Cell line: flipin-293-MC4 • ✔ Cell culture medium: DMEM, 10% fetal bovine serum, 1 × PS, 200 µg/mL hygromycin • ✔ Experimental buffer: HBSS, 20 mM HEPES, 0.1% BSA, 500 µM IBMX • ✔ Positive compound: ML00253764 c. Antagonist detection • 1. Digested cells were suspended in the experimental buffer, and then inoculated into the 384-well cell culture plate. • 2. The to-be-detected compound was added to the cell plate, and incubated at 37°C for 10 min. • 3. Melanotan I was added to the cell plate, and incubated at 37°C for 30 min. • 4. Two detection reagents EU cAMP tracer and ulight anti camp were thawed and diluted with a lysis solution in the kit. • 5. The diluted detection reagents were added to the cell plate and incubated at room temperature for 1 h. • 6. Reading was carried out by Envision. (Excitation light: 340 nm, emission light: 615 nm and 665 nm) d. Data analysis • 1. %Inhibition calculation: %Inhibition = (Signalcmpd−SignalAve_VC)/(SignalAve_PC−SignalAve_VC) × 100. [formula] • Signalcmpd: compound signal value; • SignalAve_VC: negative control signal value; • SignalAve_PC: positive control signal value; • %inhibition: inhibition percentage. • 2. Calculation of IC50 of the compound using the nonlinear fitting equation in GraphPad: Y = Bottom + (Top−Bottom)/(1+10^(∧)((LogIC50−X)×HillSlope)) [formula] X: logarithmic value of the concentration of the compound; Y: inhibition percentage

[1] = Pharmacokinetic study on the tested compound in SD male rats; type: in vivo; settings: IV 1 mpk/PO 2 mpk
Protocol: On the day of administration, the tested compound was prepared with 5% DMSO + 5% Solutol + 90% Saline as a solvent into a solution for administration for use.
The solution for administration was administered to an intravenous injection IV group at a dose of 1 mg/kg in a concentration of 0.2 mg/mL. The solution for administration was administered to an oral gavage PO group at a dose of 2 mg/kg in a concentration of 0.2 mg/mL. The animals in the PO group were required to fast overnight in advance, drink water freely, and be fed 4 hours after administration. The IV group was not required to fast.
The animals were weighed before administration. On the day of administration, the solution was IV/PO-administered once in an administration amount calculated based on the weight. In the IV group, blood was collected from veins at 0.083 h, 0.25 h, 0.5 h, 1.0 h, 2.0 h, 4.0 h, 8.0 h, and 24 h after administration. In the PO group, blood was collected from veins at 0.25 h, 0.5 h, 1.0 h, 2.0 h, 4.0 h, 6.0 h, 8.0 h, and 24 h after administration. The amount of blood collected was about 0.20 mL. K2-EDTA was used in blood collection tubes as an anticoagulant. The collected blood sample was centrifuged (centrifugation conditions: 6800 g, 6 min, 2°C to 8°C) within 1 h to obtain plasma. The to-be-tested sample was stored in a refrigerator at -80°C before analysis.
The concentration of the tested compound in the plasma of the SD male rats was detected by the validated LC-MS/MS method.

[2] = Sprague-Dawley (SD), rat, plasma

T1 sequence (P32245 whole entry): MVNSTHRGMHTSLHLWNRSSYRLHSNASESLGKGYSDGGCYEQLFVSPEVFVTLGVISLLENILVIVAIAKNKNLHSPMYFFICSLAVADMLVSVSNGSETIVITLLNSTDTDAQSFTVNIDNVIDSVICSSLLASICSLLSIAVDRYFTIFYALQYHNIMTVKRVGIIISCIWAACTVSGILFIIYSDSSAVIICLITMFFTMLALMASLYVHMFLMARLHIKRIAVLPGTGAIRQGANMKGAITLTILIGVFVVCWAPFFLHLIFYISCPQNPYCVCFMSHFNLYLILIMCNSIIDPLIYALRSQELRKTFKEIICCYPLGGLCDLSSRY

IC50 (MC4R) | Compound | other results
1.59 nM | COc1cc([C@@H](C)C(=O)N2C[C@@H](Nc3ccc(-c4cn(C)c(C(C)(C)O)n4)c(C)n3)C3(CC3)C2)c(F)cn1 [Compound 181, (R)-2-(5-fluoro-2-methoxypyridine-4-yl)-1-((S)-7-((5-(2-(2-hydroxypropan-2-yl)-1-methyl-1H-imidazol-4-yl)-6-methylpyridine-2-yl)amino)-5-azaspiro[2.4]hept-5-yl)propan-1-one] | 
26.2 nM | COc1cc([C@@H](C)C(=O)N2CC[C@H](Nc3ccc(-c4ncc(C#N)cn4)c(C)n3)C2)c(F)cn1 [Compound 110, 2-(6-(((S)-1-((R)-2-(5-fluoro-2-methoxypyridine-4-yl)propionyl)pyrrolidine-3-yl)amino)-2-methylpyridine-3-yl)pyrimidine-5-nitrile] | 
0.86 nM | COc1cc([C@@H](C)C(=O)N2C[C@@H](Nc3ccc(-c4cn(C)c(C(C)(C)O)n4)c(C)n3)C3(CC3)C2)c(Cl)cn1 [Compound 182, (R)-2-(5-chloro-2-methoxypyridine-4-yl)-1-((S)-7-((5-(2-(2-hydroxypropan-2-yl)-1-methyl-1H-imidazol-4-yl)-6-methylpyridine-2-yl)amino)-5-azaspiro[2.4]hept-5-yl)propan-1-one] | 
10.6 nM | COc1cc([C@@H](C)C(=O)N2C[C@@H](C)[C@H](Nc3ccc(-c4ncccn4)c(C)n3)C2)c(F)cn1 [Compound 051-2, (R)-2-(5-fluoro-2-methoxypyridine-4-yl)-1-((3R,4S)-3-methyl-4-((6-methyl-5-(pyrimidine-2-yl)pyridine-2-yl)amino)pyrrolidine-1-yl)propan-1-one] | 
1.06 nM | COc1cc([C@@H](C)C(=O)N2C[C@@H](Nc3ccc(-c4nc(C)n(C)n4)c(C)n3)C3(CC3)C2)c(F)cn1 [Compound 132, (2R)-1-[(7S)-7-{[5-(1,5-dimethyl-1H-1,2,4-triazole-3-yl)-6-methylpyridine-2-yl]amino}-5-azaspiro[2.4]heptane-5-yl]-2-(5-fluoro-2-methoxypyridine-4-yl)propan-1-one] | 
3.68 nM | COc1cc([C@@H](C)C(=O)N2C[C@@H](Nc3ccc(-c4cc(C#N)ccn4)c(C)n3)C3(CC3)C2)c(Cl)cn1 [Compound 168, 6'-(((S)-5-((R)-2-(5-chloro-2-methoxypyridine-4-yl)propionyl)-5-azaspiro[2.4]hept-7-yl)amino)-2'-methyl-[2,3'-bipyridyl]-4-carbonitrile] | 
2.11 nM | COc1cc([C@@H](C)C(=O)N2C[C@@H](Nc3ccc(-c4cn5c(n4)CCC5)c(C)n3)C3(CC3)C2)c(Cl)cn1 [Compound 188, (R)-2-(5-chloro-2-methoxypyridine-4-yl)-1-((S)-7-((5-(6,7-dihydro-5H-pyrrolo[1,2-a]imidazol-2-yl)-6-methylpyridine-2-yl)amino)-5-azaspiro[2.4]hept-5-yl)propan-1-one] | 
3.04 nM | COc1cc([C@@H](C)C(=O)N2C[C@@H](Nc3ccc(-c4nccc(C(F)F)n4)c(C)n3)C3(CC3)C2)c(F)cn1 [Compound 155, (R)-1-((S)-7-((5-(4-(difluoromethyl)pyrimidine-2-yl)-6-methylpyridine-2-yl)amino)-5-azaspiro[2.4]hept-5-yl)-2-(5-fluoro-2-methoxypyridine-4-yl)propan-1-one] | 
0.9 nM | COc1cc([C@@H](C)C(=O)N2CC[C@H](Nc3ccc(-c4nccc(C#N)n4)c(C)n3)C2)c(Cl)cn1 [Compound 113, 2-(6-(((S)-1-((R)-2-(5-chloro-2-methoxypyridine-4-yl)propionyl)pyrrolidine-3-yl)amino)-2-methylpyridine-3-yl)pyrimidine-4-nitrile] | 

The next lines start with the compound.

Compound | IC50 (MC4R) | other results
COc1ccc2nc(N[C@@H]3CN(C(=O)[C@H](C)c4cc(OC)ncc4Cl)CC34CC4)nc(C)c2c1 [Compound 118] | 3.75 nM | 
COc1cc([C@@H](C)C(=O)N2C[C@@H](Nc3ccc(-c4ncn(C)n4)c(C)n3)C3(CC3)C2)c(Cl)cn1 [Compound 142, (2R)-2-(5-chloro-2-methoxypyridine-4-yl)-1-[(7S)-7-{[6-methyl-5-(1-methyl-1H-1,2,4-triazole-3-yl)pyridine-2-yl]amino}-5-azaspiro[2.4]heptane-5-yl]propan-1-one] | 3.29 nM | 
COc1cc([C@@H](C)C(=O)N2C[C@@H](Nc3ccc(-c4cnn(C)c4)c(C)n3)C3(CC3)C2)c(F)cn1 [Compound 143, (2R)-2-(5-fluoro-2-methoxypyridine-4-yl)-1-((7S)-7-((6-methyl-5-(1-methyl-1H-pyrazol-4-yl)pyridine-2-yl)amino)-5-azaspiro[2.4]heptane-5-yl)propan-1-one] | 5.73 nM | 
COc1cc([C@@H](C)C(=O)N2CC[C@H](Nc3ccc(-c4cn(C)c(OC(F)F)n4)c(C)n3)C2)c(F)cn1 [Compound 197, (R)-1-((S)-3-((5-(2-(difluoromethoxy)-1-methyl-1H-imidazol-4-yl)-6-methylpyridine-2-yl)amino)pyrrolidine-1-yl)-2-(5-fluoro-2-methoxypyridine-4-yl)propan-1-one] |  | F [1]: 11.1%; AUC [1, 2]: 43 ng·h/mL; Cmax [1, 2]: 35 ng/mL; clearance [1, 2]: 86.9 mL/min/kg; half-life [1, 2]: 1.2 h
COc1cc([C@@H](C)C(=O)N2C[C@@H](Nc3ccc(-c4cn(C(F)F)nn4)c(C)n3)C3(CC3)C2)c(Cl)cn1 [Compound 196, (R)-2-(5-chloro-2-methoxypyridine-4-yl)-1-((S)-7-((S-(1-(difluoromethyl)-1H-1,2,3-triazol-4-yl)-6-methylpyridine-2-yl)amino)-5-azaspiro[2.4]hept-5-yl)propan-1-one] | 4.88 nM | 
COc1cc([C@@H](C)C(=O)N2C[C@@H](Nc3ccc(-c4nccc(C(F)F)n4)c(C)n3)C3(CC3)C2)c(Cl)cn1 [Compound 156, (R)-2-(5-chloro-2-methoxypyridine-4-yl)-1-((S)-7-((5-(4-(difluoromethyl)pyrimidine-2-yl)-6-methylpyridine-2-yl)amino)-5-azaspiro[2.4]hept-5-yl)propan-1-one] | 1.85 nM | 
COc1cc([C@@H](C)C(=O)N2C[C@@H](Nc3ccc4cc(OC)c(F)cc4n3)C3(CC3)C2)c(F)cn1 [Compound 117, (R)-2-(5-fluoro-2-methoxypyridine-4-yl)-1-((S)-7-((7-fluoro-6-methoxyquinoline-2-yl)amino)-5-azaspiro[2.4]heptane-5-yl)propan-1-one] | 1.57 nM | 
COc1cc([C@@H](C)C(=O)N2C[C@@H](Nc3ccc(-c4cn5c(n4)CCC5)c(C)n3)C3(CC3)C2)c(F)cn1 [Compound 187, (R)-1-((S)-7-((5-(6,7-dihydro-5H-pyrrolo[1,2-a]imidazol-2-yl)-6-methylpyridine-2-yl)amino)-5-azaspiro[2.4]hept-5-yl)-2-(S-fluoro-2-methoxypyridine-4-yl)propan-1-one] | 3.42 nM | 
COc1cc([C@@H](C)C(=O)N2C[C@@H](Nc3ccc(-c4cnn(C)c4)c(C)n3)C3(CC3)C2)c(Cl)cn1 [Compound 144] | 1.83 nM | 
COc1cc([C@@H](C)C(=O)N2CCC(Nc3ccc(-c4ncccn4)c(C)n3)C2)c(F)cn1 (stereo partly drawn) [Compound 001, (2R)-2-(5-fluoro-2-methoxypyridine-4-yl)-1-(3-((6-methyl-5-(pyrimidine-2-yl)pyridine-2-yl)amino)pyrrolidine-1-yl)propyl-1-one] | 16.4 nM | 

From patent EP4620955A1, “MC4R ANTAGONIST COMPOUND, PHARMACEUTICAL COMPOSITION AND PHARMACEUTICAL USE THEREOF” (Changchun Genescience Pharmaceutical Co., Ltd., priority 2022, dated 2024)
